Laboratory results as given in paper PMC8695447, “Novel Small Molecules Capable of Blocking mtRAS-Signaling Pathway” (Frontiers in Oncology, 2021).

Key:
mtKRAS NSCLC cell = tested on: mtKRAS NSCLC cell; design: method as in earlier work; conditions: ACK1 inhibitor; ref 37 (Tan et al.); cited from earlier work
[1] = tested on: MDA-MB-468 (KRAS, NRAS-wt); test: Anti-proliferation assay on MDA-MB-468; format: cell-based; conditions: Homo sapiens, MDA-MB-468; 72 h treatment; average with SD (n = 3, duplicate)
Protocol: (§1) Ba/F3-parental, OCI-AML3, U397 cells were purchased from DSMZ. MDA-MB-231, HCT-116, AsPC-1, H358, HT-29, SW480, and DU-145 cells were obtained from KCLB. MDA-MB-468 cells were obtained from ATCC. All cells were maintained in RPMI with 10% FBS and antibiotics. Cells were grown in a humidified 5% CO2 incubator at 37°C. Ba/F3-parental cells were grown in the presence of 10 ng/ml IL-3. NRAS-G12D or NRAS-G12V transformed Ba/F3 cell lines (Ba/F3-NRAS-G12D, and Ba/F3-NRAS-G12V, respectively) were cultured without IL-3, which were established by the procedure described as previously ([30]).
(§2) Approximately 3.0 × 10^3 cells/well were seeded in a 96-well cell culture plate. After stabilization, 1/3 serially diluted compound in DMSO was treated to the cell. […] All GI50 values were obtained in duplicate with three independent assays and averages with standard deviation are presented.

DU-145 (KRAS-G12V) = test: Anti-proliferation assay on DU-145; format: cell-based; conditions: Homo sapiens, DU-145; 72 h treatment; average with SD (n = 3, duplicate)
Protocol: as §1, §2

HCT-116 (KRAS-G13D) = test: Anti-proliferation assay on HCT-116; format: cell-based; conditions: Homo sapiens, HCT-116; 72 h treatment; average with SD (n = 3, duplicate)
Protocol: as §1, §2

H358 (KRAS-G12C) = test: Anti-proliferation assay on H358; format: cell-based; conditions: Homo sapiens, NCI-H358; 72 h treatment; average with SD (n = 3, duplicate)
Protocol: as §1, §2

Ba/F3-parental cells = test: Anti-proliferation assay (CellTiter Glo) on Ba/F3-parental; format: cell-based; conditions: Mus musculus, BaF3; 72 h treatment; with 10 ng/ml IL-3; average with SD (n = 3, duplicate)
Protocol: as §1, §2

SW480 (KRAS-G12V) = test: Anti-proliferation assay on SW480; format: cell-based; conditions: Homo sapiens, SW480; 72 h treatment; average with SD (n = 3, duplicate)
Protocol: as §1, §2

Ba/F3-NRAS-G12V cells = test: Anti-proliferation assay (CellTiter Glo) on Ba/F3-NRAS-G12V; format: cell-based; conditions: Mus musculus, BaF3; 72 h treatment; average with SD (n = 3, duplicate)
Protocol: as §1, §2

OCI-AML3 (NRAS-Q61L) = test: Anti-proliferation assay on OCI-AML3; format: cell-based, human; conditions: Homo sapiens, OCI-AML-3; 72 h treatment; average with SD (n = 3, duplicate)
Protocol: as §1, §2

AsPC-1 (KRAS-G12D) = test: Anti-proliferation assay on AsPC-1; format: cell-based; conditions: Homo sapiens, ASPC1; 72 h treatment; average with SD (n = 3, duplicate)
Protocol: as §1, §2

HT-29 (KRAS-Q61L) = test: Anti-proliferation assay on HT-29; format: cell-based; conditions: Homo sapiens, HT-29; 72 h treatment; average with SD (n = 3, duplicate)
Protocol: as §1, §2

U937 (KRAS, NRAS-wt) = test: Anti-proliferation assay on U937; format: cell-based; conditions: Homo sapiens, U-937; 72 h treatment; average with SD (n = 3, duplicate)
Protocol: as §1, §2

Ba/F3-NRAS-G12D cells = test: Anti-proliferation assay (CellTiter Glo) on Ba/F3-NRAS-G12D; format: cell-based; conditions: Mus musculus, BaF3; 72 h treatment; average with SD (n = 3, duplicate)
Protocol: as §1, §2

MDA-MB-231 (KRAS-G13D) = test: Anti-proliferation assay on MDA-MB-231; format: cell-based; conditions: Homo sapiens, MDA-MB-231; 72 h treatment; average with SD (n = 3, duplicate)
Protocol: as §1, §2

## COc1cc(Nc2c(C#N)cnc3cc(OCCCN4CCN(C)CC4)c(OC)cc23)c(Cl)cc1Cl [bosutinib]
mtKRAS NSCLC cell
  mtKRAS NSCLC cell migration and invasion: suppressed

## CCN1CCN(c2ccc(Nc3ncc4c(n3)N(C)C(=O)N(c3cc(NC(=O)c5cccc(C(F)(F)F)c5)ccc3C)C4)cc2)CC1 [Compound 4, N-(3-(7-((4-(4-Ethylpiperazin-1-yl)phenyl)amino)-1-methyl-2-oxo-1,4-dihydropyrimido[4,5-d]pyrimidin-3(2H)-yl)-4-methylphenyl)-3-(trifluoromethyl)benzamide]
[1]
  GI50: 26100 ± 7900 nM
DU-145 (KRAS-G12V)
  GI50: 32 ± 14 nM
HCT-116 (KRAS-G13D)
  GI50: 25 ± 10 nM
H358 (KRAS-G12C)
  GI50: 236 ± 29 nM
Ba/F3-parental cells
  GI50: 857 ± 108 nM
SW480 (KRAS-G12V)
  GI50: 163 nM
Ba/F3-NRAS-G12V cells
  GI50: 213 ± 53 nM
OCI-AML3 (NRAS-Q61L)
  GI50: 44 ± 14 nM
AsPC-1 (KRAS-G12D)
  GI50: 135 ± 18 nM
HT-29 (KRAS-Q61L)
  GI50: 126 ± 2 nM
U937 (KRAS, NRAS-wt)
  GI50: 1040 ± 225 nM
Ba/F3-NRAS-G12D cells
  GI50: 230 ± 129 nM
MDA-MB-231 (KRAS-G13D)
  GI50: 83 ± 22 nM

## CCN1CCN(c2ccc(Nc3ncc4c(n3)N(C)C(=O)N(c3cc(NC(=O)c5cccc(C(F)(F)F)c5)ccc3C)C4)c(C(F)(F)F)c2)CC1 [Compound 8, N-(3-(7-((4-(4-Ethylpiperazin-1-yl)-2-(trifluoromethyl)phenyl)amino)-1-methyl-2-oxo-1,4-dihydropyrimido[4,5-d]pyrimidin-3(2H)-yl)-4-methylphenyl)-3-(trifluoromethyl)benzamide]
[1]
  GI50: > 50000 nM
DU-145 (KRAS-G12V)
  GI50: 3990 ± 566 nM
HCT-116 (KRAS-G13D)
  GI50: 5810 ± 965 nM
H358 (KRAS-G12C)
  GI50: 8980 ± 246 nM
Ba/F3-parental cells
  GI50: 3920 ± 722 nM
SW480 (KRAS-G12V)
  GI50: 5790 ± 657 nM
Ba/F3-NRAS-G12V cells
  GI50: 944 ± 112 nM
OCI-AML3 (NRAS-Q61L)
  GI50: 687 ± 154 nM
AsPC-1 (KRAS-G12D)
  GI50: 6650 ± 102 nM
HT-29 (KRAS-Q61L)
  GI50: 2140 ± 109 nM
U937 (KRAS, NRAS-wt)
  GI50: 6060 ± 2180 nM
Ba/F3-NRAS-G12D cells
  GI50: 1255 ± 6 nM
MDA-MB-231 (KRAS-G13D)
  GI50: 2790 ± 658 nM
